Test results from US12673944B2, “Compounds having inhibitory activity against glucosylceramide synthase or pharmaceutically acceptable salt thereof, processes for preparing the same, and pharmaceutical compositions comprising the same” (YUHAN CORPORATION, priority 2019, dated 2026).

Key:
[1] = tested on: GM1 production in Jurkat cells; assay: cells; assay type: cell-based; settings: Homo sapiens, Jurkat, 72 h
[2] = molecular target: T1, glucosylceramide synthase (GCS) (Homo sapiens, UniProt Q16739); assay: GCS enzyme inhibition assay (A549 cell lysate, NBD C6-ceramide, HPLC fluorescence); assay type: biochemical; settings: inhibitory activity against GCS, 37° C., 90 minutes
T1 construct: The obtained supernatant was used; host or cells: A549 cells (lysate supernatant after sonication)
T1 sequence (Q16739 1-394): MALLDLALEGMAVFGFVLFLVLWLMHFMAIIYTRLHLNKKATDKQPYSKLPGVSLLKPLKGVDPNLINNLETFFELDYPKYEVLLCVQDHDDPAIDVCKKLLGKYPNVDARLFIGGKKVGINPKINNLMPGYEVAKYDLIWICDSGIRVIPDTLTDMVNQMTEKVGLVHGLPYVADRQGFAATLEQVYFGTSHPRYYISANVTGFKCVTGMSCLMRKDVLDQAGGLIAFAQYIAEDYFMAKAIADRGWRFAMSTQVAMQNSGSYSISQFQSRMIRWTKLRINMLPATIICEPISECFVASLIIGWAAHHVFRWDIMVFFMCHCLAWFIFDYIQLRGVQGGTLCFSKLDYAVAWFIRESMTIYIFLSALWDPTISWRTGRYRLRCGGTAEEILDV
Method: Ibiglustat, known as a GCS inhibitor, was used as a control.
After the cells attached to the culture dish were washed with phosphate buffered saline (PBS), the cells were scraped off with a cell scraper and then centrifuged (4000 rpm, 3 min, 4° C.) to collect the cells in a 50 ml tube. The cell pellets were suspended in a lysis buffer (50 mM HEPES, pH 7.3, containing 1× the protease/phosphatase inhibitor cocktail), lysed by sonication, and then the lysate was centrifuged (13000 rpm, 10 min, 4° C.). The obtained supernatant was used for the quantitative analysis of proteins. The amount of proteins was measured using the BCA protein assay kit, using bovine serum albumin as a standard.
Enzymatic reactions were initiated by sequentially adding the following reaction materials to a 96 deep-well plate. Thereafter, the enzymatic reactions were performed at 37° C. for 90 minutes.
The enzymatic reactions were stopped by adding 100 μl of chloroform/methanol (2:1, v/v). After vortexing for 15 seconds, each mixture was centrifuged (4000 rpm, 10 min, 18° C.). The lower layer (50 μl) was transferred to a new 96 deep-well plate and dried with a reduced concentrator.
Data analysis was performed by the following equations. % Area(Sample)=Area(GlcCer)/[Area(Cer)+Area(GlcCer)]×100 % GCS activity=[Area(Sample)−Area(ibiglustat)]/[Area(DMSO)−Area(ibiglustat)]×100

| SMILES | IC50 [1] | IC50 [2] |
| --- | --- | --- |
| O=C(NC1CCOc2cc(-c3ccc(C(F)(F)F)cc3)ccc21)O[C@@H]1CN2CCC1CC2 (stereo partly drawn) [Example 15, (S)-quinuclidin-3-yl (7-(4-(trifluoromethyl)phenyl)chroman-4-yl)carbamate] | 38.9 nM | 11.7 nM |
| COc1cc2c(cc1-c1ccc(OC(C)C)nc1)OCC(C)(C)C2NC(=O)O[C@@H]1CN2CCC1CC2 (stereo partly drawn) [Example 367, (S)-quinuclidin-3-yl (7-(6-isopropoxypyridin-3-yl)-6-methoxy-3,3-dimethylchroman-4-yl)carbamate] | 3.2 nM | 0.22 nM |
| COc1cc2c(cc1-c1ccsc1)OCC(C)(C)C2NC(=O)O[C@@H]1CN2CCC1CC2 (stereo partly drawn) [Example 357, (S)-quinuclidin-3-yl (6-methoxy-3,3-dimethyl-7-(thiophen-3-yl)chroman-4-yl)carbamate] | 4 nM | 0.45 nM |
| O=C(NC1CCOc2ccc(-c3cccc(F)c3)cc21)O[C@@H]1CN2CCC1CC2 (stereo partly drawn) [Example 86, (S)-quinuclidin-3-yl (6-(3-fluorophenyl)chroman-4-yl)carbamate] | 181 nM | 9.68 nM |
| CC1(C)COc2cc(-c3ccc(-c4ccon4)cc3)ccc2C1NC(=O)O[C@@H]1CN2CCC1CC2 (stereo partly drawn) [Example 259, (S)-quinuclidin-3-yl (7-(4-(isoxazol-3-yl)phenyl)-3,3-dimethylchroman-4-yl)carbamate] | 6.9 nM | 1.14 nM |
| CC1(C)COc2cc(-c3ccc(C#N)cc3)ccc2C1NC(=O)O[C@@H]1CN2CCC1CC2 (stereo partly drawn) [Example 247, (S)-quinuclidin-3-yl (7-(4-cyanophenyl)-3,3-dimethylchroman-4-yl)carbamate] | 10.7 nM | 0.58 nM |
| O=C(NC1CCSc2cc(-c3coc4ccccc34)ccc21)O[C@@H]1CN2CCC1CC2 (stereo partly drawn) [Example 328, (S)-quinuclidin-3-yl (7-(benzofuran-3-yl)thiochroman-4-yl)carbamate] | 13.8 nM | 1.18 nM |
| O=C(NC1CCOc2cc(-c3ccc(N4CCOCC4)c(Cl)c3)ccc21)O[C@@H]1CN2CCC1CC2 (stereo partly drawn) [Example 76, (S)-quinuclidin-3-yl (7-(3-chloro-4-morpholinophenyl)chroman-4-yl)carbamate] | 29.2 nM | 1.94 nM |
| COCOc1ccccc1-c1ccc2c(c1)OCCC2NC(=O)O[C@@H]1CN2CCC1CC2 (stereo partly drawn) [Example 5, (S)-quinuclidin-3-yl (7-(2-(methoxymethoxy)phenyl)chroman-4-yl)carbamate] | 29.2 nM | 3.71 nM |
| CC(C)(C)c1ccc(-c2ccc3c(c2)OCC(C)(C)C3NC(=O)O[C@@H]2CN3CCC2CC3)cc1 (stereo partly drawn) [Example 193, (S)-quinuclidin-3-yl (7-(4-(tert-butyl)phenyl)-3,3-dimethylchroman-4-yl)carbamate] | 0.46 nM | 0.51 nM |
| CC1(C)COc2cc(-c3cc4ccccc4s3)ccc2C1NC(=O)O[C@@H]1CN2CCC1CC2 (stereo partly drawn) [Example 208, (S)-quinuclidin-3-yl (7-(benzo[b]thiophen-2-yl)-3,3-dimethylchroman-4-yl)carbamate] | 2.47 nM | 1.41 nM |
| O=C(NC1CCOc2cc(-c3ccsc3)ccc21)O[C@@H]1CN2CCC1CC2 (stereo partly drawn) [Example 64, (S)-quinuclidin-3-yl (7-(thiophen-3-yl)chroman-4-yl)carbamate] | 19.2 nM | 1.32 nM |
| COc1ccc(-c2ccc3c(c2)OCCC3NC(=O)O[C@@H]2CN3CCC2CC3)cc1C(F)(F)F (stereo partly drawn) [Example 83, (S)-quinuclidin-3-yl (7-(4-methoxy-3-(trifluoromethyl)phenyl)chroman-4-yl)carbamate] | 19.6 nM | 3.93 nM |
| CC1(NC(=O)O[C@@H]2CN3CCC2CC3)CCOc2cc(-c3coc4ccccc34)ccc21 (stereo partly drawn) [Example 304, (S)-quinuclidin-3-yl (7-(benzofuran-3-yl)-4-methylchroman-4-yl)carbamate] | 2.1 nM | 0.38 nM |
| COc1ccc(-c2ccc3c(c2)OCC(C)(C)C3NC(=O)O[C@@H]2CN3CCC2CC3)c(OC)n1 (stereo partly drawn) [Example 129, (S)-quinuclidin-3-yl (7-(2,6-dimethoxypyridin-3-yl)-3,3-dimethylchroman-4-yl)carbamate] | 4.56 nM | 1.15 nM |
| O=C(NC1CCOc2cc(-c3ccccc3F)ccc21)O[C@@H]1CN2CCC1CC2 (stereo partly drawn) [Example 9, (S)-quinuclidin-3-yl (7-(2-fluorophenyl)chroman-4-yl)carbamate] | 2.83 nM | 1.81 nM |

| SMILES | IC50 [1] | IC50 [2] |
| --- | --- | --- |
| CCc1cccc(-c2cc3c(cc2F)C(NC(=O)O[C@@H]2CN4CCC2CC4)C(C)(C)CO3)c1 (stereo partly drawn) [Example 333, (S)-quinuclidin-3-yl (7-(3-ethylphenyl)-6-fluoro-3,3-dimethylchroman-4-yl)carbamate] | 0.8 nM | 0.45 nM |
| O=C(NC1CCOc2ccc(-c3cccc(Cl)c3)cc21)O[C@@H]1CN2CCC1CC2 (stereo partly drawn) [Example 89, (S)-quinuclidin-3-yl (6-(3-chlorophenyl)chroman-4-yl)carbamate] | 216 nM | 6.63 nM |
| CC1(C)COc2cc(-c3cc(OC(F)(F)F)ccc3Cl)ccc2C1NC(=O)O[C@@H]1CN2CCC1CC2 (stereo partly drawn) [Example 142, (S)-quinuclidin-3-yl (7-(2-chloro-5-(trifluoromethoxy)phenyl)-3,3-dimethylchroman-4-yl)carbamate] | 0.19 nM | 0.67 nM |
| CC1(C)COc2cc(-c3cccc(C#N)c3)ccc2C1NC(=O)O[C@@H]1CN2CCC1CC2 (stereo partly drawn) [Example 170, (S)-quinuclidin-3-yl (7-(3-cyanophenyl)-3,3-dimethylchroman-4-yl)carbamate] | 5.83 nM | 0.42 nM |
| CCc1ccc(-c2cc3c(cc2OC)C(NC(=O)O[C@@H]2CN4CCC2CC4)C(C)(C)CO3)cc1 (stereo partly drawn) [Example 353, (S)-quinuclidin-3-yl (7-(4-ethylphenyl)-6-methoxy-3,3-dimethylchroman-4-yl)carbamate] | 2.3 nM | 0.33 nM |
| O=C(NC1CCOc2cc(-c3cnc4ccccc4c3)ccc21)O[C@@H]1CN2CCC1CC2 (stereo partly drawn) [Example 55, (S)-quinuclidin-3-yl (7-(quinolin-3-yl)chroman-4-yl)carbamate] | 22.3 nM | 3.58 nM |
| COc1ccc(-c2cc3c(cc2F)C(NC(=O)O[C@@H]2CN4CCC2CC4)C(C)(C)CO3)c(F)c1 (stereo partly drawn) [Example 341, (S)-quinuclidin-3-yl (6-fluoro-7-(2-fluoro-4-methoxyphenyl)-3,3-dimethylchroman-4-yl)carbamate] | 4.1 nM | 0.17 nM |
| CC(C)c1cccc(-c2ccc3c(c2)OCCC3NC(=O)O[C@@H]2CN3CCC2CC3)c1 (stereo partly drawn) [Example 23, (S)-quinuclidin-3-yl (7-(3-isopropylphenyl)chroman-4-yl)carbamate] | 0.57 nM | 0.48 nM |
| CCCCc1ccc(-c2cc3c(cc2OC)C(NC(=O)O[C@@H]2CN4CCC2CC4)C(C)(C)CO3)cc1 (stereo partly drawn) [Example 362, (S)-quinuclidin-3-yl (7-(4-butylphenyl)-6-methoxy-3,3-dimethylchroman-4-yl)carbamate] | 0.7 nM | 0.11 nM |
| O=C(NC1CCOc2cc(-c3ccc(F)c(F)c3F)ccc21)O[C@@H]1CN2CCC1CC2 (stereo partly drawn) [Example 30, (S)-quinuclidin-3-yl (7-(2,3,4-trifluorophenyl)chroman-4-yl)carbamate] | 48.2 nM | 3.92 nM |
| CC1(C)COc2cc(-c3cccc(Cl)c3Cl)ccc2C1NC(=O)O[C@@H]1CN2CCC1CC2 (stereo partly drawn) [Example 235, (S)-quinuclidin-3-yl (7-(2,3-dichlorophenyl)-3,3-dimethylchroman-4-yl)carbamate] | 7.1 nM | 0.75 nM |
| COCOc1ccccc1-c1ccc2c(c1)OCC(C)(C)C2NC(=O)O[C@@H]1CN2CCC1CC2 (stereo partly drawn) [Example 106, (S)-quinuclidin-3-yl (7-(2-(methoxymethoxy)phenyl)-3,3-dimethylchroman-4-yl)carbamate] | 0.22 nM | 1.17 nM |
| CC1(C)COc2cc(-c3ccc(F)cc3Cl)ccc2C1NC(=O)O[C@@H]1CN2CCC1CC2 (stereo partly drawn) [Example 231, (S)-quinuclidin-3-yl (7-(2-chloro-4-fluorophenyl)-3,3-dimethylchroman-4-yl)carbamate] | 1.5 nM | 0.62 nM |
| CC1(C)COc2cc(-c3cc4ccccc4o3)ccc2C1NC(=O)O[C@@H]1CN2CCC1CC2 (stereo partly drawn) [Example 183, (S)-quinuclidin-3-yl (7-(benzofuran-2-yl)-3,3-dimethylchroman-4-yl)carbamate] | 6.43 nM | 1.22 nM |
| CC1(C)COc2cc(Cc3ccccc3)ccc2C1NC(=O)O[C@@H]1CN2CCC1CC2 (stereo partly drawn) [Example 267, (S)-quinuclidin-3-yl (7-benzyl-3,3-dimethylchroman-4-yl)carbamate] | 9.1 nM | 1.48 nM |
